Measured values: patent US11174268B2, “Benzenesulfonamide compouds and their use as therapeutic agents” (Xenon Pharmaceuticals Inc., priority 2016, dated 2021)
Where two headings read alike, the source gives them in different places.

Experiments:
NaV1.5 = NaV1.5 (Homo sapiens (Human), UniProt Q14524); assay: Sodium Influx Assay (Flux), NaV1.5
NaV1.1 = NaV1.1 (Homo sapiens (Human), UniProt P35498); assay: Sodium Influx Assay (Flux), NaV1.1; type: cell-based; settings: Trex HEK293 cells, ANG2 dye, inactivated state;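 note: channels co-expressed with human β1 subunit and held open by modulators, cells exposed to compounds for one hour at room temperature, IC50 from percent inhibition of influx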
NaV1.6 = NaV1.6 (Homo sapiens (Human), UniProt Q9UQD0); assay: Sodium Influx Assay (Flux), NaV1.6; type: cell-based; settings: Trex HEK293 cells, ANG2 dye, inactivated state;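 note: Tetracycline-induced cells, compounds applied for one hour at room temperature with modulators holding channels open, IC50 from percent inhibition of sodium influx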
[1] = read-out: Flux NaV1.5 IC50, Trex HEK293 cells, ANG2 dye, inactivated state

Chain of NaV1.5 (Q14524 other isoform, or with tags, fused parts or gaps): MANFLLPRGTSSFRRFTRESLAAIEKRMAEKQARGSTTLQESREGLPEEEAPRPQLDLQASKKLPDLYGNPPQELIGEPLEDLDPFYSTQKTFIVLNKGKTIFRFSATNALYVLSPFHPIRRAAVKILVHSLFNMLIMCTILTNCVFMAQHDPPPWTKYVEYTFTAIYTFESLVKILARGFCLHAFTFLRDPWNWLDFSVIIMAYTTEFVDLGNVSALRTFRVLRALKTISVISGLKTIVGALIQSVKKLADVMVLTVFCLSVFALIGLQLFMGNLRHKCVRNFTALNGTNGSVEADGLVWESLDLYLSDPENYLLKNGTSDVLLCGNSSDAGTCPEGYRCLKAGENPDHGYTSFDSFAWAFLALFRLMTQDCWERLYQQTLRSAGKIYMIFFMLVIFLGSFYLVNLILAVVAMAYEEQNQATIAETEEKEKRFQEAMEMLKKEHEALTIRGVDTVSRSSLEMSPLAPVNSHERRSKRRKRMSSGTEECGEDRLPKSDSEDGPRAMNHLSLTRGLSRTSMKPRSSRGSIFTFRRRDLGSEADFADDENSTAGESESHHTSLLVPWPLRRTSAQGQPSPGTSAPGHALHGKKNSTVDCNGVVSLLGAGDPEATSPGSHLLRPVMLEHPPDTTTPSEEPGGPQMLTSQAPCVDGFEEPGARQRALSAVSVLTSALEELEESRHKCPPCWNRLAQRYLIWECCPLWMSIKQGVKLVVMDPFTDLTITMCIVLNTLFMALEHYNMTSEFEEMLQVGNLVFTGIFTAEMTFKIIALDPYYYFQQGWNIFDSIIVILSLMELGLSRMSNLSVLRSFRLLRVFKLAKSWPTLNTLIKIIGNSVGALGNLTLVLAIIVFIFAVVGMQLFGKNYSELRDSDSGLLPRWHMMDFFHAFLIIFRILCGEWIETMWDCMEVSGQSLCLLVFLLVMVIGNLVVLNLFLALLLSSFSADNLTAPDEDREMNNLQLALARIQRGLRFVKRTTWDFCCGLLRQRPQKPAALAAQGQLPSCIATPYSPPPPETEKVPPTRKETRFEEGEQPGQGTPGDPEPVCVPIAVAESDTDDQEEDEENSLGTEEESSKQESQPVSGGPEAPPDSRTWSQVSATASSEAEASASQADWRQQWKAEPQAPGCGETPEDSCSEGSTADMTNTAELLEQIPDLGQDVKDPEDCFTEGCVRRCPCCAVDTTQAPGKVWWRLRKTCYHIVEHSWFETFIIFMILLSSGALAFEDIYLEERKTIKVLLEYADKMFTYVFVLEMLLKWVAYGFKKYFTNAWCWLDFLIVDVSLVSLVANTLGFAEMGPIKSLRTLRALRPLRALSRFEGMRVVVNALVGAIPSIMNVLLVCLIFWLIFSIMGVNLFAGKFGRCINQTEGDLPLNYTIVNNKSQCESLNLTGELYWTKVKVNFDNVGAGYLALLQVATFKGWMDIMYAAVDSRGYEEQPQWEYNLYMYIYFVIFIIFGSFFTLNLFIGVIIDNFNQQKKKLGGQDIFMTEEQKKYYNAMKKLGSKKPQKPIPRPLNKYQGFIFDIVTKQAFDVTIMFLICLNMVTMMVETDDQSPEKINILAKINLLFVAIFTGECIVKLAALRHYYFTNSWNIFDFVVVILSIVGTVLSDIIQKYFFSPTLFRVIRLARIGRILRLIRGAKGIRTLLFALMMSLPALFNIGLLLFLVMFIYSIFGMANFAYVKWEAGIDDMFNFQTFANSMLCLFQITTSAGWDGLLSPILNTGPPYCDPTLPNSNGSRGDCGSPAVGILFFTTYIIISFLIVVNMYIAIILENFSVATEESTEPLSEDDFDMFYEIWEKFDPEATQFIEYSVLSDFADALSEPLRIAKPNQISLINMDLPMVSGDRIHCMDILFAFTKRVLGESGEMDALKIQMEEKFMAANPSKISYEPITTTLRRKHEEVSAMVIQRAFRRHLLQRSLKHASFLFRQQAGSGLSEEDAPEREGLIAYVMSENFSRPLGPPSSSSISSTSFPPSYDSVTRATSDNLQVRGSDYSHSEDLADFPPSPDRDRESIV

SMILES | IC50 (NaV1.5; [1]) [µM] | IC50 (NaV1.1) [µM] | IC50 (NaV1.6) [nM] | IC50 (NaV1.5) [µM]
CN(Cc1cccc(F)c1CNc1ccc(S(=O)(=O)Nc2cscn2)c(F)c1F)C(C)(C)C [Example 203, 4-((2-((tert-butyl(methyl)amino)methyl)-6-fluorobenzyl)amino)-2,3-difluoro-N-(thiazol-4-yl)benzenesulfonamide 2,2,2-trifluoroacetate] | 28.3 | 26.6 | 225 | –
C[C@H](Nc1cc(F)c(S(=O)(=O)Nc2ccncn2)c(F)c1)c1cc(F)ccc1F [Example 208, (S)-4-((1-(2,5-difluorophenyl)ethyl)amino)-2,6-difluoro-N-(pyrimidin-4-yl)benzenesulfonamide 2,2,2-trifluoroacetate] | 30 | 9.89 | 593 | –
CCc1cccc(CN2CCC2)c1CNc1cc(F)c(S(=O)(=O)Nc2cscn2)c(F)c1 [Example 210, 4-((2-(azetidin-1-ylmethyl)-6-ethylbenzyl)amino)-2,6-difluoro-N-(thiazol-4-yl)benzenesulfonamide 2,2,2-trifluoroacetate] | 26.8 | 3.75 | 416 | –
O=S(=O)(Nc1cscn1)c1c(F)cc(NCc2c(CN3CCC3)cccc2C2CC2)cc1F [Example 211, 4-((2-(azetidin-1-ylmethyl)-6-cyclopropylbenzyl)amino)-2,6-difluoro-N-(thiazol-4-yl)benzenesulfonamide 2,2,2-trifluoroacetate] | 19.2 | 3.38 | 1760 | –
COC(C)(C)C1CN(Cc2ccccc2CNc2cc(F)c(S(=O)(=O)Nc3cscn3)c(F)c2)C1 [Example 214, 2,6-difluoro-4-((2-((3-(2-methoxypropan-2-yl)azetidin-1-yl)methyl)benzyl)amino)-N-(thiazol-4-yl)benzenesulfonamide 2,2,2-trifluoroacetate] | 16.2 | 13.4 | 326 | –
Cc1cc(NS(=O)(=O)c2c(F)cc(NCc3c(F)ccc(F)c3CN3CCC3)cc2F)no1 [Example 216, 4-((2-(azetidin-1-ylmethyl)-3,6-difluorobenzyl)amino)-2,6-difluoro-N-(5-methylisoxazol-3-yl)benzenesulfonamide 2,2,2-trifluoroacetate] | 30 | 30 | 3120 | –
CN(C)Cc1ccccc1C1(Nc2cc(F)c(S(=O)(=O)Nc3cscn3)cc2Cl)CC1 [Example 217, 5-chloro-4-((1-(2-((dimethylamino)methyl)phenyl)cyclopropyl)-amino)-2-fluoro-N-(thiazol-4-yl)benzenesulfonamide 2,2,2-trifluoroacetate] | 11.6 | 15.3 | 701 | –
COCc1cccc(F)c1CNc1cc(F)c(S(=O)(=O)Nc2cscn2)cc1Cl [Example 218, 5-chloro-2-fluoro-4-((2-fluoro-6-(methoxymethyl)benzyl)amino)-N-(thiazol-4-yl)benzenesulfonamide] | 20.9 | 28.4 | 3210 | –
Cc1cc(S(=O)(=O)Nc2ccon2)c(F)cc1NCc1c(F)cccc1CN1CCC1 [Example 219, 4-((2-(azetidin-1-ylmethyl)-6-fluorobenzyl)amino)-2-fluoro-N-(isoxazol-3-yl)-5-methylbenzenesulfonamide] | 30 | 30 | 280 | –
O=S(=O)(Nc1nccs1)c1cc(Cl)c(NC2(c3ccccc3F)CC2)cc1F [Example 220, 5-chloro-2-fluoro-4-((1-(2-fluorophenyl)cyclopropyl)amino)-N-(thiazol-2-yl)benzenesulfonamide] | 3.17 | 2.12 | 193 | –
O=S(=O)(Nc1cscn1)c1cc(Cl)c(OC2(c3ccccc3)CC2)cc1F [Example 221, 5-chloro-2-fluoro-4-(1-phenylcyclopropoxy)-N-(thiazol-4-yl)benzenesulfonamide] | 19 | 25.4 | 4660 | –
CC[C@H](Nc1cc(F)c(S(=O)(=O)Nc2cscn2)cc1Cl)c1ccccc1Cl [Example 222, (S)-5-chloro-4-((1-(2-chlorophenyl)propyl)amino)-2-fluoro-N-(thiazol-4-yl)benzenesulfonamide] | 8.35 | 3.99 | 1920 | –
C[C@H](Nc1cc(F)c(S(=O)(=O)Nc2cscn2)cc1Cl)c1cc(F)cc(F)c1 [Example 223, (S)-5-chloro-4-((1-(3,5-difluorophenyl)ethyl)amino)-2-fluoro-N-(thiazol-4-yl)benzenesulfonamide] | – | 3.74 | 4230 | 12.2
O=S(=O)(Nc1cscn1)c1cc(Cl)c(NC2(c3ccc(F)cc3F)CC2)cc1F [Example 224, 5-chloro-4-((1-(2,4-difluorophenyl)cyclopropyl)amino)-2-fluoro-N-(thiazol-4-yl)benzenesulfonamide] | 30 | 7.76 | 5070 | –
Cc1cccc(Cl)c1CNc1cc(F)c(S(=O)(=O)Nc2cscn2)cc1Cl [Example 226, 5-chloro-4-((2-chloro-6-methylbenzyl)amino)-2-fluoro-N-(thiazol-4-yl)benzenesulfonamide] | 11.3 | 19.9 | 8190 | –
C[C@H](Nc1cc(F)c(S(=O)(=O)Nc2cscn2)cc1Cl)c1cc(CC(F)F)ccc1F [Example 227, (S)-5-chloro-4-((1-(5-(2,2-difluoroethyl)-2-fluorophenyl)ethyl)amino)-2-fluoro-N-(thiazol-4-yl)benzenesulfonamide] | 8.6 | 8.78 | 1250 | –
COCc1ccc(F)c([C@H](C)Nc2cc(F)c(S(=O)(=O)Nc3cscn3)c(F)c2)c1 [Example 228, (S)-2,6-difluoro-4-((1-(2-fluoro-5-(methoxymethyl)phenyl)ethyl)amino)-N-(thiazol-4-yl)benzenesulfonamide] | 27.5 | 13.2 | 1940 | –
C[C@H](Nc1cc(F)c(S(=O)(=O)Nc2cscn2)cc1Cl)c1cc(C#N)ccc1F [Example 229, (S)-5-chloro-4-((1-(5-cyano-2-fluorophenyl)ethyl)amino)-2-fluoro-N-(thiazol-4-yl)benzenesulfonamide] | 30 | 30 | 961 | –
O=S(=O)(Nc1cscn1)c1c(F)cc(NC2(c3ccccc3)CC2)cc1F [Example 231, 2,6-difluoro-4-[(1-phenylcyclopropyl)amino]-N-thiazol-4-yl-benzenesulfonamide] | 30 | 17.5 | 4220 | –
C[C@H](Oc1cc(F)c(S(=O)(=O)Nc2cscn2)c(F)c1)c1ccccc1F [Example 232, (S)-2,6-difluoro-4-(1-(2-fluorophenyl)ethoxy)-N-(thiazol-4-yl)benzenesulfonamide] | 11.2 | 21.2 | 1750 | –
C[C@H](Nc1cc(F)c(S(=O)(=O)Nc2cscn2)c(F)c1)c1cc(C(F)F)ccc1F [Example 233, (S)-4-((1-(5-(difluoromethyl)-2-fluorophenyl)ethyl)amino)-2,6-difluoro-N-(thiazol-4-yl)benzenesulfonamide] | 12.4 | 3.08 | 787 | –
C[C@H](Nc1cc(F)c(S(=O)(=O)Nc2cscn2)cc1Cl)c1cc(O)ccc1F [Example 234, (S)-5-chloro-2-fluoro-4-((1-(2-fluoro-5-hydroxyphenyl)ethyl)amino)-N-(thiazol-4-yl)benzenesulfonamide] | 8.67 | 4.62 | 669 | –
